Measured values as given in patent US8653110B2, “Active compound combination comprising azadirachtin and a substituted enaminocarbonyl compound” (Bayer CropScience AG, priority 2010, dated 2014).

Tested on: Cyclocephala immaculata
Experiment: Watering test with beetle larvae (Example 2)
Type: in vivo
Conditions: L3 larvae, watering, (I-1) 600, azadirachtin 60, (I-1)+azadirachtin 600+60, trichlorfon 4529 g of active compound/ha
Excerpt: Beetle larvae (grubs) are important lawn pests. On the one hand, they feed on grass roots, damaging them directly, on the other hand they are a favoured food for birds which, searching for grubs, destroy the turf. For treatment against grubs, infested lawns are usually watered with insecticidal compositions. This type of treatment is emulated in the laboratory by Example 2.
To prepare a suitable active compound preparation, a commercial formulation of active compound or active compound combination is mixed with water until the desired concentration is reached. Pots with soil substrate were watered with the following active compound preparations: • 1. untreated • 2. compound (I-1) as SL 200, 600 g of active compound/ha • 3. azadirachtin, 60 g of active compound/ha • 4. compound (I-1) as SL 200+azadirachtin, 600+60 g of active compound/ha • 5. positive control: trichlorfon 4529 g of active compound/ha
L3 larvae of Cyclocephala immaculata were placed onto the pots. After 1, 4, 7, 14 days, the survival rate was determined, and this was used to calculate the efficacy of the compositions. 100% means that all grubs were killed, 0% means no activity.

Compound: COP(=O)(OC)C(O)C(Cl)(Cl)Cl (stereo not shown) [trichlorfon]
- Effect on day 1 in % (day 1): 0%
- Effect on day 4 in % (day 4): 17%
- Effect on day 7 in % (day 7): 29%
- Effect on day 14 in % (day 14): 50%
